The text below walks through data of patent publication US9809568B2, “Compounds inhibiting leucine-rich repeat kinase enzyme activity” (Merck Sharp & Dohme Corp., priority 2013, dated 2017).

This assay has as its target LRRK2(G2019S mutation, GST-LRRK2 (amino acids 970-2527)) (Homo sapiens (Human), UniProt Q5S007, G2019S). As to the kind of experiment: LRRK2 Km ATP LanthaScreen Assay. In kind it is biochemical. As to conditions: Km ATP LanthaScreen TR-FRET; G2019S LRRK2, LRRKtide substrate; mean IC50 of several tests. An excerpt: Unless otherwise noted, all LRRK2 IC50 data presented in tables refers to the LRRK2 Km ATP LanthaScreen™ Assay that is described in the Biological Assay section.
The data presented for the Km ATP LanthaScreen™ Assay represents mean IC50 values based on several test results and may have reasonable deviations depending on the specific conditions and reagents used. Reagents for the LRRK2 Km ATP LanthaScreen™ Assay were purchased from Life Technologies Corporation.
LRRK2 Km ATP LanthaScreen™ Assay
• a) 400 nl of a 1:2.15 serial dilution of test compound (98 μM top assay concentration) is spotted via Labcyte Echo to certain wells in a 384 well black, untreated plate. Control wells contain 400 nl of either DMSO or 400 nl of a known inhibitor in DMSO. • b) 10 μl of a 2.5 nM LRRK2(G2019S mutation, GST-LRRK2 (amino acids 970-2527)) enzyme solution in 1× assay buffer (50 mM Tris pH 8.5, 10 mM MgCl2, 0.01% Brij-35, 1mM EGTA, 2 mM DTT, 0.05 mM NaVO4) is added to all wells. • c) A 30 minute room temperature incubation is followed by addition of 10 μl of 800 nM fluorescein labeled LRRKtide peptide substrate and 186 μM ATP solution in 1× assay buffer to all wells. • d) After a 60 minute room temperature incubation, 20 μl of TR-FRET Dilution Buffer (Invitrogen PV3756B) containing 4 nM Tb-labeled anti-phospho LRRKtide antibody and 20 mM EDTA is added to all wells. • e) Plates are incubated at room temperature for 1 hour and read on an Envision™ multi-mode plate reader with LanthaScreen™ settings. Results are analysed using Assay Data Analyzer.
In general terms: Time-resolved FRET reads energy transfer from a long-lived donor to a nearby acceptor.

Chain of LRRK2(G2019S mutation, GST-LRRK2 (amino acids 970-2527)) (Q5S007 970-2527 G2019S): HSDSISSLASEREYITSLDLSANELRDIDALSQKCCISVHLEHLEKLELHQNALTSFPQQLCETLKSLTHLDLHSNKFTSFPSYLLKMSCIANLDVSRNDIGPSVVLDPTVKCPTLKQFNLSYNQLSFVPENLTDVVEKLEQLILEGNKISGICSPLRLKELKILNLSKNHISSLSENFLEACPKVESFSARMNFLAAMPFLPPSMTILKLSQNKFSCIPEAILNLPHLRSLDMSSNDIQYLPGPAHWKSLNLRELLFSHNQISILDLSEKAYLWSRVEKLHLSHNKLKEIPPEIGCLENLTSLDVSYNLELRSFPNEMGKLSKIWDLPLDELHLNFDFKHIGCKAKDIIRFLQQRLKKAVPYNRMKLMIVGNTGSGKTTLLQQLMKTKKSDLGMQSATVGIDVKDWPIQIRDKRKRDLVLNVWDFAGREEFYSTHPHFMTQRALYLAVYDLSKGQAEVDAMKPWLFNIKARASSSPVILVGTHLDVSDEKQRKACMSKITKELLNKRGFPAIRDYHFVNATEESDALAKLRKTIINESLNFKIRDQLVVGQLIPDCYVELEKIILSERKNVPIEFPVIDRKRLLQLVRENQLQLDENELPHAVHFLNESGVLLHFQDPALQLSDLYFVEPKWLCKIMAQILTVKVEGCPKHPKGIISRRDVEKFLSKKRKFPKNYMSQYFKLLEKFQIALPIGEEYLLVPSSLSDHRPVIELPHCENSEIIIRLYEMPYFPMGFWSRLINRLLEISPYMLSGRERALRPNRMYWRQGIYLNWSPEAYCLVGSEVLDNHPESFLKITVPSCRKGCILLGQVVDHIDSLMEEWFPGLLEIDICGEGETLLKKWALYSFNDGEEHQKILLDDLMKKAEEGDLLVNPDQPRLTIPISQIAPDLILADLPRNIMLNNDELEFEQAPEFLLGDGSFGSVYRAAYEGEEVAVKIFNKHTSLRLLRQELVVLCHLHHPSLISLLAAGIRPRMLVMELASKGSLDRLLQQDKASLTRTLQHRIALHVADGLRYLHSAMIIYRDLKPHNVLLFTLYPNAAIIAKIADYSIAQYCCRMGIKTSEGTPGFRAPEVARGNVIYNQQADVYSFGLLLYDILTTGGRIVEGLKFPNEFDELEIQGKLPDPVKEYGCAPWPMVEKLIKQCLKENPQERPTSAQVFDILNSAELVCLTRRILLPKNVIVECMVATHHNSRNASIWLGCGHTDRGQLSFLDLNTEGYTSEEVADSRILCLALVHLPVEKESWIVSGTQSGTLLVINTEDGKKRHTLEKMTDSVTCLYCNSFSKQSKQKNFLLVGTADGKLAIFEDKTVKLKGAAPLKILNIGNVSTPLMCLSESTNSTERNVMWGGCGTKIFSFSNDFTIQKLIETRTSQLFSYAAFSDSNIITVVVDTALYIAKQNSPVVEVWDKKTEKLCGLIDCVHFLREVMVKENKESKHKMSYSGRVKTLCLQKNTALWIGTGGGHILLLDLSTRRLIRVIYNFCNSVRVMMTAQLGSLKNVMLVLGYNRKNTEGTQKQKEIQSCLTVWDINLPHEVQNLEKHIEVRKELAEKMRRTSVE

For orientation: IC50 means the concentration needed to halve the response being measured. Read a low IC50 as greater potency in that assay. As for `CC(C)Oc1cc(F)c2[nH]nc(-c3ccnc(N4CCOCC4)c3)c2c1` [Example 4], the concentration for half-maximal inhibition (IC50) came to 12 nM. The value for `Fc1cc(-c2cnccn2)cc2c(-c3ccnc(N4CCOCC4)c3)n[nH]c12` [Example 6] was 58 nM. As for `Cc1cc(-c2cnn(C)c2)cc2c(-c3ccnc(N4CCOCC4)c3)n[nH]c12` [Example 7], half-maximal inhibition (IC50) required 199 nM. `Cn1cc(-c2cc(Cl)c3[nH]nc(-c4ccnc(N5CCOCC5)c4)c3c2)cn1` [Example 8] registered an IC50 of 309 nM. As to `Cn1cc(-c2cc(F)c3[nH]nc(-c4ccnc(N5CC(F)C5)c4)c3c2)cn1` [Example 10], 8.2 nM corresponded to half-maximal inhibition (IC50). Regarding `Cc1cc(-c2cnn(C)c2)cc2c(-c3ccnc(N4CCN(S(C)(=O)=O)CC4)c3)n[nH]c12` [Example 11], it took 218 nM to reach half-maximal inhibition (IC50). Consider `Cc1cc(-c2cnn(C)c2)cc2c(-c3ccnc(N4CC[C@@H](F)C4)c3)n[nH]c12` [Example 12], for which 380 nM corresponded to half-maximal inhibition (IC50).
